# Experimental data taken from patent US7385103B2, “Animal model, cells, and treatment for malignant melanoma” (Rutgers, the State University, priority 2004, dated 2008).
# Columns and labels:
# [1] = test system: Grm1-mediated ERK1/2 activation; assay: ERK1/2 phosphorylation in melanoma cells, western blot with phospho-ERK1/2 antibodies; type: cell-based, mouse; settings: for phosphorylation of ERK1/2: 10^−5 M
# Description: To examine whether ERK1/2 were activated after Grm1 activation, cells were treated for the indicated times with the agonist Quisqualate. After treatment, melanoma cells were lysed and the activation of ERK1/2 was determined using antibodies against the phosphorylated forms of ERK1/2.
# Melanoma cells lines were transiently transfected with dominant-negative mutants of Grm1 and expression of the Grm1 mutants was analyzed by western blot analysis.
# Upon IP3 accumulation in cells, calcium is released from the endoplasmic reticulum to the cytoplasm, allowing these ions to act as second messengers that bind to calmodulin and further activate calcium-calmodulin-dependent kinases that are capable of activating mitogen-activated protein kinases (MAPKS) (Soderling (1999) Trends Biochem. Sci. 24(6):232-6). Accordingly, it was determined whether IP3 accumulation in the tumor cell lines disclosed herein, upon Grm1 agonist treatment, would yield intracellular calcium signaling that could affect ERK activation. Depletion of intracellular calcium in these cells was obtained by chelating extracellular calcium with EGTA, which obligates calcium to exit the cell in order to maintain calcium homeostasis.
# PIP2 hydrolysis resulting from Grm1 activation leads to the production of IP3 and DAG. DAG can then activate protein kinase C (PKC). […] Thus, it was determined whether the activation of ERK1/2 by Grm1 is also mediated by PKC in the tumor cell lines disclosed herein.
# To have a minimum amount of the natural ligand (glutamate) present in the growth medium, customized glutamine- and glutamate-free RPMI (RPMI-glu) was used (INVITROGEN™, Carlsbad, Calif.). GLUTAMAX™ (INVITROGEN™), a substitute for glutamate and glutamine, was added to the growth medium at a final concentration of 2 mM, and 10% dialyzed fetal calf serum (INVITROGEN™) was used to supplement the medium. For induction with Grm1 agonist, quisqualate, the cells were grown in RPMI-glu for 3-4 days, plated at 3×10^5 cells per 60-mm plate and serum starved overnight. Several concentrations of quisqualate (10^−4 M to 10^−6 M) and several time points (30 seconds to 120 minutes) were tested for optimal induction. For Grm1 antagonist effects, cells were pretreated for 30 minutes with 10^−5 M of LY367385 before agonist treatment. For PKC inhibitor (RO-31-8220) and calcium chelators (EGTA, BAPTA-AM), cells were pretreated for indicated times before agonist challenge.
# Proteins were extracted using lysis buffer (50 mM Tris-HCl, 150 mM NaCl, 1 mM EDTA, 1% NP-40, 5% glycerol, and 1 mM dithiothreitol, pH 7.4) and protease inhibitors (Complete protease inhibitor cocktail tablets, Roche Molecular Biochemicals, Indianapolis, Ind.). Protein concentrations were measured using the BIO-RAD® DC Protein Assay kit (Bio-Rad, Hercules, Calif.). Equal amounts of lysates were loaded in each lane in 7.5 or 10% polyacrylamide gels (BIO-RAD®, Hercules, Calif.). Proteins were transferred to nitrocellulose membranes (Osmonics, Minnetonka, Minn.). Ponceau Red staining of membranes, after transfer, was performed to verify equivalent amounts of protein between samples. Anti-PERK, ERK, PhosphoPKC isoforms, PKC isoforms antibodies were obtained from Cell Signaling Technology, Inc. (Beverly, Mass.).
# melanoma cell lines = assay: establishment of melanoma cell lines from amelanotic ear tumors in culture; type: cell-based, mouse
# Description: To further analyze the signaling events mediated by Grm1 in transformed melanocytes, cell lines derived from ear tumor bearing albino mice (Cohen-Salal, et al. (2001) supra) were generated. Tumors from these mice were sectioned in two halves. Protein extraction was performed on one part of the tumors and western immunoblots were done to verify the ectopic expression of Grm1. The other half of the tumor was used to generate homogeneous in vitro melanoma cell lines by gentle selection of melanocyte cells over keratinocytes and fibroblasts through differential geneticin resistance. Initial efforts to directly establish cell lines on standard culture medium supplemented with geneticin were unsuccessful. […] Based on morphology and growth rate, 10^−5 M quisqualate was sufficient to establish growth in culture. […] Ten cells lines namely LL1A, LL1T, Nu1, Nu2, MMB3A, MMB3T, 4045A, 4045T, 4046T, 4046A, were successfully generated from at least six independent mice tumors. Given that these mouse melanoma cell lines behave very similarly in culture, data presented herein is of representative cell lines. […] Cytoplasmic staining for Grm1 has also been reported in other cellular systems (Tadokoro, et al. (1999) Proc. Natl. Acad. Sci. USA 96:13801-13806). To verify the melanocytic origin of these cells, co-staining of the cells was performed with Tyrp-1. […]
molecule,measurement,setting,value
Cc1cc(C(=O)O)ccc1[C@H](N)C(=O)O [LY367385],activation of ERK1/2 by quisqualate,[1]; melanoma lines pretreated 30 minutes with antagonist (10^−5 M) before agonist challenge,abrogated
"N[C@@H](Cn1oc(=O)[nH]c1=O)C(=O)O [quisqualate, L-quisqualate]",phosphorylation of ERK1/2,[1]; after 5 minutes of tumor cell stimulation,increase in the phosphorylation of ERK1/2
same,phosphorylation of ERK1/2,[1]; after 15 minutes of stimulation,reduced to background levels
same,quisqualate concentration sufficient to establish growth in culture,melanoma cell lines; based on morphology and growth rate,10^−5 M
same,establishment of melanoma cell lines on addition to culture medium,melanoma cell lines; culture medium supplemented with geneticin,enabled the establishment of melanoma cell lines
CC(=O)OCOC(=O)CN(CC(=O)OCOC(C)=O)c1ccccc1OCCOc1ccccc1N(CC(=O)OCOC(C)=O)CC(=O)OCOC(C)=O [BAPTA-AM],ERK activation by quisqualate,"[1]; preincubation 30 minutes prior to agonist challenge, in calcium-free media",completely abolished
same,ERK activation by quisqualate,"[1]; preincubation 30 minutes prior to agonist challenge, in the presence of extracellular calcium",dose-dependent decrease in ERK activation
O=C(O)CN(CCOCCOCCN(CC(=O)O)CC(=O)O)CC(=O)O [EGTA],ERK activation by quisqualate,[1]; chelating extracellular calcium to deplete intracellular calcium,time-dependent decrease in ERK activation
"siRNA: siRNA specific for Grm1 nucleic acid, templates SEQ ID NO:3 (top strand) and SEQ ID NO:4 (bottom strand) (nucleic acid, expressed or natural sequence; the letters are possibly those of the target site) sense: GATCCCGTGGACGGAGATGTCATCATTTCAAGAGAATGATGACATCTCCGTCCATTTTTTGGAAA antisense: GCTTTTCCAAAAAATGGACGGAGATGTCATCATTCTCTTGAAATGATGACATCTCCGTCCACGG",ERK activation by Grm1 agonist,"[1]; transfected melanoma cells, compared to cells transfected with an unrelated siRNA sequence",inhibited ERK activation
